Converted amounts (≈) assume the structure as drawn.
Legend:
[1] = biological target: T1, human DNA topoisomerase II (Homo sapiens, UniProt P11388); test: Relaxation assay of topoisomerase II (supercoiled pBR322); type: biochemical; details: for IC50: five concentrations 5, 10, 25, 50 and 100 μg/mL, read-out: Inhibition of DNA topoisomerase II IC50 (converted)
T1 construct: purchased TopoGen
Procedure: (§1) Topoisomerases I and II (topo I and II) assays were measured by assessing relaxation of supercoiled pBR322 plasmid DNA according to [24]. […] In summary, topo I (TopoGen) was mixed with the test sample and 10° volume of assay buffer (100 mM Tris-HCl, 10 mM EDTA, 1.5 M NACl, 1.0% BSA, […], and 50% glycerol), and then supercoiled DNA (pBR322) was added. In topo II assay, the mixture contained test sample and buffer including 50 mM Tris-HCl, 120 mM KCl, 10 mM MgCl2, 0.5 mM ATP, 0.5 mM dithiothreitol, 2 μg BSA, pBR322 plasmid DNA (0.25 μg), and 3U of topo II (TopoGen) in final volume of 20 μL. After incubation of topo I or topo II mixture for 30 min at 37 °C, 2 λ 10% SDS and 2.5 λ proteinase K were added for 1 h. The reaction mixtures were electrophoresed on a 2% agarose gel (50 V, 20 min; 100 V, 30 min; 110 V, 30 min) and stained with ethidium bromide. Finally, by a densitometer of ImageMaster® (Fujifilm thermal imaging system, FTI-500), the gels were directly scanned and the area representing supercoiled DNA was calculated.

[2] = test system: Hepa (human hepatoma); test: Cytotoxicity assay, Hepa cells; type: cell-based; details: 72 h, 3 days incubation, by interpolation
Procedure: (§2) The cytotoxic activities of compounds against KB (human mouth epidermoid carcinoma), DLD (human colon adenocarcinoma), NCI-H661 (human lung large cell carcinoma), Hepa (human hepatoma), and HepG2/A2 (human hepatoblastoma) cells were assayed by the […] assay as previously described. The cells for assay were cultured in RPMI-1640 medium supplemented with […] in an incubator at 37 °C. The cytotoxicity assay depends on the binding of methylene blue to fixed monolayers of cells at pH 8.5, washing the monolayer, and releasing the dye by lowering the pH value. Samples and control standard drugs were prepared at a concentration of 1, 10, 40, and 100 μg/mL. After seeding 2880 cells/well in a 96-well microplate for 3 h, 20 μL of sample or standard agent was placed in each well and incubated at 37 °C for 3 days. After removing the medium from the microplates, the cells were fixed with 10% formaldehyde in 0.9% saline for 30 min, then dyed with 1% (w/v) methylene blue in 0.01 M borate-buffer (100 μL/well) for 30 min. The 96-well plate was dipped into a 0.01 M borate-buffer solution four times in order to remove the dye. Then, 100 μL/well of EtOH-0.1 M HCl (1:1) was added as a dye eluting solvent, and the absorbance was measured on a microtiter plate reader (Dynatech, MR 7000) at a wavelength of 650 nm. […] Doxorubicin was used as a standard compound.

[3] = test system: DLD (human colon adenocarcinoma); test: Cytotoxicity assay, DLD cells; type: cell-based; details: Homo sapiens, 72 h, 3 days incubation, by interpolation
Procedure: as §2

[4] = test system: NCI-H661 (human lung large cell carcinoma); test: Cytotoxicity assay, NCI-H661 cells; type: cell-based; details: 72 h, 3 days incubation, by interpolation
Procedure: as §2

[5] = test system: HepG2/A2 (human hepatoma); test: Cytotoxicity assay, HepG2/A2 cells; type: cell-based; details: Homo sapiens, 72 h; HepG2/A2 cells, 3 days incubation, by interpolation
Procedure: as §2

[6] = biological target: T2, human DNA topoisomerase I (Homo sapiens, UniProt P11387); test: Relaxation assay of topoisomerase I (supercoiled pBR322); type: biochemical; details: five concentrations 5, 10, 25, 50 and 100 μg/mL; read-out: Inhibition of DNA topoisomerase I IC50 (converted)
T2 construct: purchased TopoGen
T2 sequence (P11387 1-765): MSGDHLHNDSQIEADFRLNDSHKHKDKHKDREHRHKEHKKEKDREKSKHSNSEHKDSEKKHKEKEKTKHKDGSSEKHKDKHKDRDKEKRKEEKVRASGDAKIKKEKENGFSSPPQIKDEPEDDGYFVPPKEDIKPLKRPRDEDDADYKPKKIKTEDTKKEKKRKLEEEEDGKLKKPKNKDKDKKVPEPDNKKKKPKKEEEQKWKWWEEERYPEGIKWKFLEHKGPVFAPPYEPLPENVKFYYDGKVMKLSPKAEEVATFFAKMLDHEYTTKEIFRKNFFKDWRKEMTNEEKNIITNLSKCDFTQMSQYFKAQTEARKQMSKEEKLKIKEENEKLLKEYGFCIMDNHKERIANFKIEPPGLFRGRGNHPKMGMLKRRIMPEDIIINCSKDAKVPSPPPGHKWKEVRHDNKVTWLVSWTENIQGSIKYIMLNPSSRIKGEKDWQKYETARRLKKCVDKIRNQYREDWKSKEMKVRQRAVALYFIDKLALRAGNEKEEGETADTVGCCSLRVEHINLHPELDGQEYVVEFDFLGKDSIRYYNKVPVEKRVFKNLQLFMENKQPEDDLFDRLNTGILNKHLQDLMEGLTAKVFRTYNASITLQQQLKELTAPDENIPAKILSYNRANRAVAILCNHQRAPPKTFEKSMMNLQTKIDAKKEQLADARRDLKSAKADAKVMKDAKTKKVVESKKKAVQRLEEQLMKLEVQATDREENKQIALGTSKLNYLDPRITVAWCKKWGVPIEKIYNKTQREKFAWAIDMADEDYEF
Procedure: as §1

[7] = test system: KB (human mouth epidermoid carcinoma); test: Cytotoxicity assay, KB cells; type: cell-based; details: 72 h, 3 days incubation, by interpolation
Procedure: as §2

[8] = test system: human tumor cell lines; test: Cytotoxicity assay, tumor cell panel (cell line not specified); type: cell-based; details: positive control
Procedure: The cytotoxic activities of compounds against KB (human mouth epidermoid carcinoma), DLD (human colon adenocarcinoma), NCI-H661 (human lung large cell carcinoma), Hepa (human hepatoma), and HepG2/A2 (human hepatoblastoma) cells were assayed by the MTT{3-(4,5-dimethylthiazole-2-yl)-2,5-diphenyltetrazolium bromide} colorimetric assay as previously described. The cells for assay were cultured in RPMI-1640 medium supplemented with […] in an incubator at 37 °C. The cytotoxicity assay depends on the binding of methylene blue to fixed monolayers of cells at pH 8.5, washing the monolayer, and releasing the dye by lowering the pH value. Samples and control standard drugs were prepared at a concentration of 1, 10, 40, and 100 μg/mL. After seeding 2880 cells/well in a 96-well microplate for 3 h, 20 μL of sample or standard agent was placed in each well and incubated at 37 °C for 3 days. After removing the medium from the microplates, the cells were fixed with 10% formaldehyde in 0.9% saline for 30 min, then dyed with 1% (w/v) methylene blue in 0.01 M borate-buffer (100 μL/well) for 30 min. The 96-well plate was dipped into a 0.01 M borate-buffer solution four times in order to remove the dye. Then, 100 μL/well of EtOH-0.1 M HCl (1:1) was added as a dye eluting solvent, and the absorbance was measured on a microtiter plate reader (Dynatech, MR 7000) at a wavelength of 650 nm. […]

T1 sequence (P11388 whole entry): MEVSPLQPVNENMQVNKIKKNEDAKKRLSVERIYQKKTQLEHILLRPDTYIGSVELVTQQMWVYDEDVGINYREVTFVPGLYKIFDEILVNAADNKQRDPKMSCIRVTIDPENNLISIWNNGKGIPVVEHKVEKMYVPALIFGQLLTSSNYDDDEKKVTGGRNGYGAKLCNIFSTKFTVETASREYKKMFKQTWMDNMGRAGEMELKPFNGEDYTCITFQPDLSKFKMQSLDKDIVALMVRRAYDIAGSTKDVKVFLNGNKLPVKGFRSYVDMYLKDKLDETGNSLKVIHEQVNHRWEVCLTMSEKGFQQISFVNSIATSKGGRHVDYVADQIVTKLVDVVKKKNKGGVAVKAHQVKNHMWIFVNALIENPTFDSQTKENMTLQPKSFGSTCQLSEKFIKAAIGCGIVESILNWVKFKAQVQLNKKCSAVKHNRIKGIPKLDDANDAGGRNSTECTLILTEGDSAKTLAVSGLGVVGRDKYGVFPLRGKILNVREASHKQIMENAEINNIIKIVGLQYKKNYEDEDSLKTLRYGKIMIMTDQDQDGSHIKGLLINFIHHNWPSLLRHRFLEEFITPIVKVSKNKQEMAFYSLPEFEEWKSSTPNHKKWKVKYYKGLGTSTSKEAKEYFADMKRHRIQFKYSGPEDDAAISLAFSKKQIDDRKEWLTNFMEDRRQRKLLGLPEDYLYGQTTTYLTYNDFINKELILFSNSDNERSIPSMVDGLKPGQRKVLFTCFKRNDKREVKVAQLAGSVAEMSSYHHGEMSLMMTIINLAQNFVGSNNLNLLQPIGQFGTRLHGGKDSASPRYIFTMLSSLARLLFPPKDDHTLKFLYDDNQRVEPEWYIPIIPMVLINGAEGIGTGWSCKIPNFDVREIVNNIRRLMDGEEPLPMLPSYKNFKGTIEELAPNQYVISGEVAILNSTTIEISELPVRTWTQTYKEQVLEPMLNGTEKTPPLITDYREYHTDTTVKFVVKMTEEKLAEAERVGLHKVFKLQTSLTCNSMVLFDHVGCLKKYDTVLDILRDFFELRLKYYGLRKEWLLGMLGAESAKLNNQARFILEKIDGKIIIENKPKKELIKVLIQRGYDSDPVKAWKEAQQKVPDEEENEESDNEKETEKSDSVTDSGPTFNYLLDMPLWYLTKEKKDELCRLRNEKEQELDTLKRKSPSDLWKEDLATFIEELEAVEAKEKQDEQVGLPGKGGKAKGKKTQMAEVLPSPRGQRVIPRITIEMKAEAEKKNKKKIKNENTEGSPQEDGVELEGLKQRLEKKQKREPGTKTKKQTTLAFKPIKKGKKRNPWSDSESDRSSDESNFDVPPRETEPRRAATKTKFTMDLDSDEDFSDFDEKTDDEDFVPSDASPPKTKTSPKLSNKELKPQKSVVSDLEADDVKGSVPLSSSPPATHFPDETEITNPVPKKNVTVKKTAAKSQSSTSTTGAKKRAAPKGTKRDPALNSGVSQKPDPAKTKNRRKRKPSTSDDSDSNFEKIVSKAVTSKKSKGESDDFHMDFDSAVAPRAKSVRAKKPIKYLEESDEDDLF

Row | IC50 [1] | melting point | IC50 [6] | inhibition of DNA topoisomerase II (in words) ([1]; compared with etoposide) | Structure (SMILES) | IC50 [2] | IC50 [3] | IC50 [4] | IC50 [5] | IC50 [7] | IC50 [8]
1 | > 179 µM | 90 to 92 °C | > 179 µM |  | CCCCCCCCCCCCCCCCn1c2ccccc2c2cc(C3=NCCc4c3[nH]c3ccccc43)ccc21 [Compound 16, 1-(9′-Hexadecyl-3′-carbazolyl)-3,4-dihydro-β-carboline] | > 20 µg/mL | > 20 µg/mL | > 20 µg/mL | > 60 µg/mL | > 20 µg/mL | 
2 | 9.09 µM | 91 to 93 °C | > 162 µM | great activity | CCCCCCCCCCCCCCCCCCCCn1c2ccccc2c2cc(C3=NCCc4c3[nH]c3ccccc43)ccc21 [Compound 18, 1-(9′-Eicosyl-3′-carbazolyl)-3,4-dihydro-β-carboline] | > 20 µg/mL | > 20 µg/mL | > 20 µg/mL | > 60 µg/mL | > 20 µg/mL | 
3 |  |  |  |  | COc1cccc2c1C(=O)c1c(O)c3c(c(O)c1C2=O)C[C@@](O)(C(=O)CO)C[C@@H]3O[C@H]1C[C@H](N)[C@H](O)[C@H](C)O1 [Doxorubicin] |  |  |  |  |  | 0.1 µg/mL (≈ 0.184 µM)

— PMC3093256, “Synthesis of 1-Substituted Carbazolyl-1,2,3,4-tetrahydro- and Carbazolyl-3,4-dihydro-β-carboline Analogs as Potential Antitumor Agents” (Marine Drugs, 2011)
